ChEMBL document CHEMBL1201862, “PubChem BioAssay data set” (2004)
Activity calls are given as the source filed them. Unless noted, the rule behind the calls is not given here.

Tests used:
cells [1] = conditions: A549
[2] = Late stage assay provider results from the probe development effort to identify inhibitors of the Plasmodium falciparum M17 Leucine Aminopeptidase (M17LAP): radiolabel-based cell-based dose response assay to identify compounds that inhibit P. falciparum growth in RBCs Set 2.; assay type: functional
[3] = P. falciparum Dd2 growth inhibitors, dose response, SYBR Green, cherry-picked samples (AID 1159567); assay type: functional, cell-based
[4] = toxicity to human hepatoma HepG2 cells – cell-based, cherry-picked samples, cytotoxicity control, dose response (AID 1159577); assay type: functional
[5] = HEK293 cell viability loss – cherry-picked samples, cytotoxicity control, dose response (AID 1053185); assay type: functional, cell-based
[6] = HepG2 cell viability loss – cherry-picked samples, cytotoxicity control, dose response (AID 1053183); assay type: functional, cell-based
[7] = A549 cell viability loss – cherry-picked samples, cytotoxicity control, dose response (AID 1053184); assay type: functional, cell-based
[8] = biological target: Delta-type opioid receptor (Homo sapiens, UniProt P41143); assay: Late-stage results from the probe development effort to identify antagonists of OPRK1: fluorescence-based cell-based dose response OPRD1 counterscreen.; assay type: functional
Chain of Delta-type opioid receptor (P41143 whole entry): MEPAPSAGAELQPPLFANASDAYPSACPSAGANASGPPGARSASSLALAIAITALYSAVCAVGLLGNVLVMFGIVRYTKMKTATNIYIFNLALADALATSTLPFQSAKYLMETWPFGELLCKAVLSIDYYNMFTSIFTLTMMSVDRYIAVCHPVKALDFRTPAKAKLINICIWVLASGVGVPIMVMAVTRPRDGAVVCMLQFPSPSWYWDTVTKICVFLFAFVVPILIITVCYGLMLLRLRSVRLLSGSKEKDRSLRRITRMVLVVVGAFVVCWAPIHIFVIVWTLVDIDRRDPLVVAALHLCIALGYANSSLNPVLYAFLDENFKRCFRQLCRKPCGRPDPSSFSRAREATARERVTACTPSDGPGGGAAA

[9] = biological target: Kappa-type opioid receptor (Homo sapiens, UniProt P41145); assay: kappa opioid receptor antagonism potency – cell-based, fluorescence, dose response, late-stage follow-up (AID 652032); assay type: functional
Chain of Kappa-type opioid receptor (P41145 whole entry): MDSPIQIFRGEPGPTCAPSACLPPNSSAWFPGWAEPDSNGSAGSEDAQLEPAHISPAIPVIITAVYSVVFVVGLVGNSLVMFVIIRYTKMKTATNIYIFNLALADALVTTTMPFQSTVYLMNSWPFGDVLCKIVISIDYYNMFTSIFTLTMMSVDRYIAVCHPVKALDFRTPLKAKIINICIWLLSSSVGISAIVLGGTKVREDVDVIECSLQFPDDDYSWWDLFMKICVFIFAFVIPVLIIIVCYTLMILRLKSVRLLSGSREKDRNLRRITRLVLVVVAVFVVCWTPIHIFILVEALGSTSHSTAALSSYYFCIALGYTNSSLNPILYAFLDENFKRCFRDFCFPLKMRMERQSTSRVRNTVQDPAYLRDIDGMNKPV

Mu-type opioid receptor = Mu-type opioid receptor (Homo sapiens, UniProt P35372); assay: Late-stage results from the probe development effort to identify antagonists of OPRK1: luminescence-based cell-based dose response OPRM1 counterscreen.; assay type: functional
Chain of Mu-type opioid receptor (P35372 whole entry): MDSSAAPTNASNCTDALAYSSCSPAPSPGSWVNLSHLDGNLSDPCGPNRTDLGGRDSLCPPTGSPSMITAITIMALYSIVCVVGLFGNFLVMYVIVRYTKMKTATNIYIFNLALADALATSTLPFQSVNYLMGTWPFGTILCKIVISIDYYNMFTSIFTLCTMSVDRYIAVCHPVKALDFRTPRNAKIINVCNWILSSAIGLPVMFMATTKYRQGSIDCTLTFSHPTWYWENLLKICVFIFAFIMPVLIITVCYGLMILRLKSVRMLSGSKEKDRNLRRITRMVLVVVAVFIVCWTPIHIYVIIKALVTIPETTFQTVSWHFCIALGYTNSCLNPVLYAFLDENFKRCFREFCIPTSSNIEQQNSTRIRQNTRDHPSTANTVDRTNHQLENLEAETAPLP

[10] = biological target: Metabotropic glutamate receptor 3 (Rattus norvegicus, UniProt P31422); assay: inhibition of rat mGlu3 glutamate signaling – HEK/GIRK cells, thallium flux, dose response (AID 651839); assay type: functional
Chain of Metabotropic glutamate receptor 3 (P31422 whole entry): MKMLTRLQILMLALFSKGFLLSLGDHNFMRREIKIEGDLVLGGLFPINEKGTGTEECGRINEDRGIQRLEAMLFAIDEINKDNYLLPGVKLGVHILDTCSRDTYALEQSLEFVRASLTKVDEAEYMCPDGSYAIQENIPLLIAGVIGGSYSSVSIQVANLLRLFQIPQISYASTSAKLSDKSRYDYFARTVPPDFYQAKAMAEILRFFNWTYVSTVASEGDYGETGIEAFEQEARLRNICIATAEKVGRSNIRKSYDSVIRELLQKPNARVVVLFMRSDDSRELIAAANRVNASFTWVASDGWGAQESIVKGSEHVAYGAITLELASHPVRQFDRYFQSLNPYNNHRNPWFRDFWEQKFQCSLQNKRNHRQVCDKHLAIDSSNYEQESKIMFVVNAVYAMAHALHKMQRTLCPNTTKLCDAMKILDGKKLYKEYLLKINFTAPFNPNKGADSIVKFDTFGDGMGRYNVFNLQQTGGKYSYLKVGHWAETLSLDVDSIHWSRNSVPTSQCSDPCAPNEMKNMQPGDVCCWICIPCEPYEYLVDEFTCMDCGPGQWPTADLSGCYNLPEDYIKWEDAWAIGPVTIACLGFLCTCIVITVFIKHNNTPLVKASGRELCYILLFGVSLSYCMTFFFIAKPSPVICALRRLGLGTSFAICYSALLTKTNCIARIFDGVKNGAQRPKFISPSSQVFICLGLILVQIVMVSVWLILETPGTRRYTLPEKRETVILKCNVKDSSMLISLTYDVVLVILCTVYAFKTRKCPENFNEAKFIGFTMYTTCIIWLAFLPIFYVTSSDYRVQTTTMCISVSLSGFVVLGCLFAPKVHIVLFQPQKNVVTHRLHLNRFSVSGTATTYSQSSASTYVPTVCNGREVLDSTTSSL

[11] = non-specific 3'UTR reporter inhibition in Clone20-Shn3RL – cell-based, Renilla luciferase, cherry-picked, counter-screen for Shn3 inhibitor project, dose response (AID 624133); assay type: functional
[12] = loss of viability in HepG2 cells – cell-based, CellTiter-Glo, cherry-picked, cytotoxicity control for Shn3 inhibitor project, dose response (AID 624134); assay type: functional
[13] = Shn3 3'UTR reporter signal decrease – cell-based, Clone20 osteoblasts, firefly luciferase, cherry-pick, set 2, Schnurri-3 inhibitor project, dose response (AID 720490); assay type: functional;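 also: actives lower the luminescence signal as inhibitors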
[14] = EF1alpha-driven Renilla reporter with control 3'UTR suppression – Clone20-Shn3RL cells, dual-Glo, cherry-pick, set 2, counter-screen for Shn3 3'UTR targeting project, dose response (AID 720724); assay type: functional, cell-based; conditions: Dual-Go Shn3RL
[15] = reduction of Shn3 3'UTR-driven luciferase in osteoblasts – cell-based, Clone20 osteoblasts, firefly luciferase, cherry-picked, dose response (AID 624132); assay type: functional;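 also: firefly luciferase luminescence from reporter carrying the Shn3 3'UTR in osteoblasts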
cells [16] = assay: cells
cells [17] = conditions: HEK293
[18] = biological target: Endoplasmic reticulum aminopeptidase 1 (Homo sapiens, UniProt Q9NZ08); assay: inhibition of human ERAP1 enzyme activity – biochemical, cherry-pick, set 2, plate reader, dose response (AID 743314)
Chain of Endoplasmic reticulum aminopeptidase 1 (Q9NZ08 whole entry): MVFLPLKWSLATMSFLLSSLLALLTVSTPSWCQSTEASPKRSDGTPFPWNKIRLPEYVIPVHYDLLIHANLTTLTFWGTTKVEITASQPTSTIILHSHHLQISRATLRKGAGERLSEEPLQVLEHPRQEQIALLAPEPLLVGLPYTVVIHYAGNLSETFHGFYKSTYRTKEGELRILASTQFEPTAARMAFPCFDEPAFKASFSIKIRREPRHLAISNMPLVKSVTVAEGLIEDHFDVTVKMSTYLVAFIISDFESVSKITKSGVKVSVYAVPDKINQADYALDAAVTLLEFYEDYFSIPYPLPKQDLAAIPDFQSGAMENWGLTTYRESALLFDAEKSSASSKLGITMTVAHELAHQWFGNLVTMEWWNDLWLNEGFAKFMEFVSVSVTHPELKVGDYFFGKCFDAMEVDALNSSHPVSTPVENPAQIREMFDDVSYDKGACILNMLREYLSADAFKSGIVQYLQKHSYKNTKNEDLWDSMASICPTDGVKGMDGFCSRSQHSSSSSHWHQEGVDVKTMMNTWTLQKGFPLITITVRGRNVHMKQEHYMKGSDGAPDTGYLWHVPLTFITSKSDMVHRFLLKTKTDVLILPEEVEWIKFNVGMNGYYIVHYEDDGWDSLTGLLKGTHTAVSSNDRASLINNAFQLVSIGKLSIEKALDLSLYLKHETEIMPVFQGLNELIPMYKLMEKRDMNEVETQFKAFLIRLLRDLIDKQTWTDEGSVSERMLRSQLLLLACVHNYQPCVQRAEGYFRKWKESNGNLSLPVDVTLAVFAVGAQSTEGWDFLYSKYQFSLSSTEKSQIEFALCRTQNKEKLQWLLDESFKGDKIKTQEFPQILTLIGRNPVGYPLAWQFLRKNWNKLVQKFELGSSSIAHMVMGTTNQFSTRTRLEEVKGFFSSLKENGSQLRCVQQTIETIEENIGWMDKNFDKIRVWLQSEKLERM

[19] = inhibition of mouse IRAP aminopeptidase activity – biochemical, Leu-AMC fluorescence, cherry-picked samples, set 2, selectivity assay for ERAP1 modulator project, dose response (AID 743340)

CCN(CC)c1ccc2c(C)c(Cl)c(=O)oc2c1
AC50 (cells [1]): > 52 µM (inactive)

COc1ccc(CC(=O)NO)cc1
IC50 [2]: 20 µM (inactive)

C/C=C/c1ccc([C@@H]2[C@@H]3CN(C(=O)Nc4ccc(C(F)(F)F)cc4)C[C@H]2N3)cc1
AC50 [3]: 6.85 µM (active)
AC50 [4]: 10.3 µM (active)
AC50 [5]: 16.6 µM (active)
AC50 [6]: 16.7 µM (active)
AC50 [7]: 18.1 µM (active)

COC(=O)c1cc(Br)cnc1N1CCC(N[C@@H]2CCCC[C@@H]2O)CC1
IC50 [8]: > 50 µM (inactive)
IC50 [9]: 0.579 µM (active)
IC50 (Mu-type opioid receptor): 19 µM (inactive)

COc1ccc(C#Cc2ccc(C(=O)N3CC[C@H](O)C3)cc2)cc1
IC50 [10]: 8.66 µM (active)

CC1CCCC(NC(=O)c2cccc(S(=O)(=O)N3CCN(c4ccccc4)CC3)c2)C1C (stereo not given)
AC50 [11]: > 70 µM (inactive)
AC50 [12]: > 70 µM (inactive)
AC50 [13]: 4.29 µM (active)
AC50 [14]: 25.2 µM (active)
AC50 [15]: 3.14 µM (active)

COCCn1c(=N)c(S(=O)(=O)c2ccc(F)cc2)cc2c(=O)n3ccccc3nc21
AC50 (cells [16]): 1.5 µM (active)
AC50 (cells [17]): > 52 µM (inactive)

Cc1c(C)c2ccc(O)c(CN3CCN(C)CC3)c2oc1=O
AC50 [18]: 10.8 µM (active)

C[C@@H]1CCCCO[C@@H](CN(C)S(C)(=O)=O)[C@@H](C)CN([C@@H](C)CO)C(=O)c2cc(NS(=O)(=O)c3ccc(Cl)cc3)ccc2O1
AC50 [19]: 17.6 µM (active)
